Assay results from ChEMBL document CHEMBL1201862, “PubChem BioAssay data set” (2004).
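Dose response: 5 concentrations. Exposure: 48 h. Format: 96-well plates. Endpoint: linear interpolation; highest concentration if not reached. GI50 marks 50% less growth.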 The source made the active and inactive calls. Cut-off read from the data, not from the text of the source: active = GI50 up to about 1.1 µM and inactive = higher.

Tests used:
Assay in all cases: DTP human tumour cell line panel, 48 h
SK-OV-3 = system: SK-OV-3
OVCAR-3 = system: OVCAR-3
OVCAR-5 = system: OVCAR-5
NCI/ADR-RES = system: NCI/ADR-RES
A549 = system: A549
MDA-MB-231 = system: MDA-MB-231
SN12C = system: SN12C
HOP-62 = system: HOP-62
UACC-62 = system: UACC-62
RPMI-8226 = system: RPMI-8226
SF-539 = system: SF-539
HL-60 = system: HL-60
SNB-19 = system: SNB-19
OVCAR-8 = system: OVCAR-8
LOX IMVI = system: LOX IMVI
MOLT-4 = system: MOLT-4
MDA-MB-435 = system: MDA-MB-435
DU-145 = system: DU-145
ACHN = system: ACHN
EKVX = system: EKVX

Row | Compound | GI50 (SK-OV-3) | GI50 (OVCAR-3) | GI50 (OVCAR-5) | GI50 (NCI/ADR-RES) | GI50 (A549) | GI50 (MDA-MB-231) | GI50 (SN12C) | GI50 (HOP-62) | GI50 (UACC-62) | GI50 (RPMI-8226) | GI50 (SF-539) | GI50 (HL-60) | GI50 (SNB-19) | GI50 (OVCAR-8) | GI50 (LOX IMVI) | GI50 (MOLT-4) | GI50 (MDA-MB-435) | GI50 (DU-145) | GI50 (ACHN) | GI50 (EKVX)
1 | CCN(CC)CCSc1nc2c(c(=N)n1-c1ccccc1)c(=S)n(-c1ccccc1)c(=S)n2-c1ccccc1 | 6.65 µM (inactive) | 1.64 µM (inactive) | 14.9 µM (inactive) | 5.36 µM (inactive) | 2.08 µM (inactive) | 1.83 µM (inactive) | 1.73 µM (inactive) | 2.85 µM (inactive) | 1.71 µM (inactive) | 0.275 µM (active) | 4.45 µM (inactive) | 0.0559 µM (active) | 18.3 µM (inactive) | 1.71 µM (inactive) | 1.46 µM (inactive) | 194 nM (active) | 1.85 µM (inactive) | 1.67 µM (inactive) | 1.74 µM (inactive) | 2.54 µM (inactive)
2 | C#CCn1c(=O)c(Cl)cn(/C(=C/C(=O)OCC)C(=O)OCC)c1=O | 31.6 µM (inactive) | 3.48 µM (inactive) | 16.9 µM (inactive) | 26 µM (inactive) | 25 µM (inactive) | 18.2 µM (inactive) | 22.4 µM (inactive) | 20 µM (inactive) | 15.8 µM (inactive) | 1.91 µM (inactive) | 6.11 µM (inactive) | 3.05 µM (inactive) | 39.8 µM (inactive) | 5.48 µM (inactive) | 8.32 µM (inactive) | 2280 nM (inactive) | 18 µM (inactive) | 18.6 µM (inactive) | 2.03 µM (inactive) | 16.1 µM (inactive)
3 | C[S+]([O-])c1cc(=O)c2ccccc2s1 (stereo not given) | 24.5 µM (inactive) | 2.42 µM (inactive) | 9.42 µM (inactive) | 16.7 µM (inactive) | 18.5 µM (inactive) | 12.6 µM (inactive) | 5.79 µM (inactive) | 27 µM (inactive) | 7.31 µM (inactive) | 2.9 µM (inactive) | 9.12 µM (inactive) | 1.99 µM (inactive) | 18.4 µM (inactive) | 3.6 µM (inactive) | 3.78 µM (inactive) | 2050 nM (inactive) | 5.14 µM (inactive) | 18.7 µM (inactive) | 1.91 µM (inactive) | 5.71 µM (inactive)
4 | Cn1c2c3c(F)c(F)ccc3nc-2cc2ccccc21 | 5.57 µM (inactive) | 2.33 µM (inactive) | 1.92 µM (inactive) | 1.49 µM (inactive) | 2.34 µM (inactive) | 3.3 µM (inactive) | 0.861 µM (active) | 1.35 µM (inactive) | 3.44 µM (inactive) | 0.711 µM (active) | 2.06 µM (inactive) | 13 µM (inactive) | 3.79 µM (inactive) | 1.74 µM (inactive) | 1.07 µM (active) | 324 nM (active) | 3.88 µM (inactive) | 1.34 µM (inactive) | 0.583 µM (active) | 12.4 µM (inactive)
5 | Cc1ccc([N+](=O)[O-])c2c(NCCC[N+](C)(C)[O-])c3ccccc3nc12 | 3.86 µM (inactive) | 2.19 µM (inactive) | 3.41 µM (inactive) | > 95.3 µM (inactive) | 1.53 µM (inactive) | 1.86 µM (inactive) | 2.19 µM (inactive) | 2.56 µM (inactive) | 1.64 µM (inactive) | 2.74 µM (inactive) | 2.6 µM (inactive) | 4 µM (inactive) | 1.17 µM (inactive) | 4.75 µM (inactive) | 2.04 µM (inactive) | 330 nM (active) | 1.77 µM (inactive) | 1.43 µM (inactive) | 5.57 µM (inactive) | 1.11 µM (active)
